Results as given in US9981037B2, “Combination therapy of beta-glycolipids and antibodies for the treatment of immune-related disorders” (HADASIT MEDICAL RESEARCH SERVICES AND DEVELOPMENT LTD., priority 2008, dated 2018).

Assays:
dendritic cells = assay: Expression of IL-23, IL-10 and TGF-β in dendritic cells by rtPCR; type: in vivo, human
Procedure: (§1) Nine subjects (3/group) were orally administered 0.2 mg, 1.0 mg or 5.0 mg of OKT3 daily for 5 days and immune parameters measured on days 5, 10 and 30 days (FIG. 12). Six subjects (3/group) received 7.5 mg of beta glucosylceramide in combination with 0.2 mg or 1.0 mg of OKT3 and 3 subjects received GC alone. All subjects were treated with 20 mg of Omeprazole (a proton pump inhibitor) during the 5 days of dosing. Dosing occurred in the morning before breakfast at the study site following a 8 hours fast.
Frozen PBMCs were used for sorting different cell populations, surface staining, and proliferation assays, and cytokine measurements. Cell sorting was performed by thawing […] PBMCs at room temperature (RT) and washing themed twice in medium at RT in 50-ml tubes in a 10-ml volume at 1,400 rpm. Cells were suspended to 20×10^6/ml and stained with seven colors staining of cells using Fc block, Lin-FITC, CD11c-APC, CD123-PE, CD3-Amcyan, CD4-Alexa700, CD25-PB, and 7-AAD was performed. Compensation controls, including an unstained control, were prepared. All samples were washed with medium and filtered into 15-ml tubes with 2 ml volume each to a total volume of 2 ml. CD4+ effector T cells, CD4+ regulatory T cells, myeloid DCs, and plasmacytoid DCs were sorted. Tubes were washed to get retrieve all sticky cells and spin them at 1,400 rpm. All cell populations were put in 350 μl of RLT 350 ul (lysis buffer), and transferred to eppendorff microtubes, and froze at −70° C. RNA was prepared using Qiagen micro kits (Valencia, Calif., USA) and cDNA was prepared using Applied Biosystems kits (Foster City, Calif., USA). We performed real-time PCR (RT-PCR) for different genes on in regulatory T cells, effector T cells, and DCs was performed.
RT RT-PCR was performed on DC from all patients in all groups. Sorting of DC was performed as described above. Total RNA was isolated from cell pellets using the RNA easy Mini Kit (QIAGENQiagen). RNA was stored at −80° C. First, strand cDNA synthesis was performed for each RNA sample from 0.5-1 μgm of total RNA using Taqman reverse transcription reagents (Applied Biosystems). cDNA was amplified using sequence-specific primers (for IL-23, IL-10, IL-1, IL-6, and TGF-β) and real-time PCR mix (Applied Biosystems) on an ABI7500 cycler. The GAPDH gene was used as an endogenous control to normalize for differences in the amount of total. RNA in each sample. All values were expressed as fold fold-increase or -decrease relative to the expression of GAPDH.
To further investigate the effect of oral OKT3 on the innate immune system, the expression of IL-23, IL-10 and TGF-β in dendritic cells was next measured by rtPCR.

PBL cells = assay: Cytokine secretion profile of PBL cells stimulated with anti-CD3; type: in vivo, human
Procedure: as §1
PBMCs were isolated from blood samples using Ficol Hypaque solution. To measure proliferation, 2×10^5 cells per well were cultured in triplicate in RPMI 1640 medium with 5% FBS (Biological Industries, Israel), 100 units/ml penicillin, 100 µg/ml streptomycin, 1% Glutamine, 1% non essential […], 1% sodium pyruvate and β-mercapto-ethanol (Biological Industries, Israel). Cells were stimulated with pre-coated antibodies (in 200 μl PBS/well):μg/well of anti OKT-3 mAb (Ortho Biotech Inc, New Jersey, USA) or 5 μg/ml soluble anti-CD3 mAb (eBioscience, CA, USA) or 2.5 μg/ml anti-CD28 mAb (R&D systems, MN, USA). One set of the above wells were added nothing while 10 μg of GC was added to a similar set for 72 h in culture at 37° C. with 5% CO2. Supernatants were collected for IL-13, IL-17 and IFN-γ. Enzyme-linked immunosorbent assays for these cytokines were performed according to the manufacturer's protocol (R&D Systems, Minneapolis, Minn.). For TGF-β, 2×10^5 cells per well were cultured in serum free media (Biotarget, Biological Industries, Israel). After collecting the supernatants, 1 µCi [^3H]thymidine (Amersham Biosciences, UK) was added to each well, and cells were harvested 18 h later. Proliferation was measured by scintillation counting.
To investigate the effect of oral OKT3 on the cytokine secretion profile of T cells, PBL cells were stimulated with 5 μg anti-CD3 and the secretion of IFN-γ, IL-17, TGF-β and IL-13 was measured.

Q: Which results are given for “OKT3: murine monoclonal anti-CD3 antibody (Orthoclone OKT-3, Ortho Biotech)”?
A: subjects with similar findings (IL-10, TGF-β) in dendritic cells (dendritic cells; 0.2 mg oral, not shown): two out of three subjects; subjects with decrease in IL-23 in dendritic cells (dendritic cells; 1.0 mg oral): all three subjects; subjects with increase in IL-10 in dendritic cells (dendritic cells; 1.0 mg oral): two out of three subjects; subjects with increase in TGF-β in dendritic cells (dendritic cells; 1.0 mg oral): one out of three subjects; effect on dendritic cells (dendritic cells; 5.0 mg oral, not shown): no effect; cytokine secretion findings (PBL cells; 0.2 mg and 5.0 mg oral, not shown): similar, though not as consistent findings; subjects with decrease in IFN-γ (PBL cells; 1.0 mg oral): three subjects; subjects with decrease of IL-17 (PBL cells; 1.0 mg oral): two out of three subjects; subjects with increase of TGF-β (PBL cells; 1.0 mg oral): two out of three subjects; subjects with increase of IL-13 (PBL cells; 1.0 mg oral, not shown): three out of three subjects
